Data set [1] is described as follows: Haldol in urine samples before hydrolysis. The format is in vivo, human. The note with it: Without Hydrolysis; summary of Table 1, N 151.
The nature of data set [2]: Haldol in urine samples after hydrolysis with a betaglucuronidase enzyme. The format is in vivo, human.
The mark [3] stands for this setting: With hydrolysis, summary of Table 1, N 151.

Regarding `O=C(CCCN1CCC(O)(c2ccc(Cl)cc2)CC1)c1ccc(F)cc1` [Haldol, Haloperidol], in data set [1], the Avg amounted to 30.7, the Max was found to be 414.0 and the Min was determined as 0.0. In data set [2] (setting [3]), the Avg is given as 982.5, the Max stood at 16805.6 and the Min is 0.0. For the same molecule, the “amount of Haldol determined in urine samples post hydrolysis versus before” value in data set [2] (human urine, betaglucuronidase hydrolysis) is given as “increased post hydrolysis”.

The values are drawn from patent US20170029866A1 (Ameritox, Ltd, priority 2015, published 2017).
